# Assays:
# Integrin alpha-V/beta-3 [1] = molecular target: T1, Integrin alpha-V/beta-3 (Homo sapiens, UniProt P05106+P06756); test: Inhibition of HUVEC attachment to human vitronectin
# Integrin alpha-5/beta-1 = Integrin alpha-5/beta-1 (Homo sapiens, UniProt P05556+P08648); test: Inhibition of HUVEC attachment to human fibronectin
# Integrin alpha-V/beta-3 [2] = molecular target: T1, Integrin alpha-V/beta-3; test: Inhibition of HUVEC attachment to human fibrinogen
# T1 sequence (P05106 27-788 limits assumed): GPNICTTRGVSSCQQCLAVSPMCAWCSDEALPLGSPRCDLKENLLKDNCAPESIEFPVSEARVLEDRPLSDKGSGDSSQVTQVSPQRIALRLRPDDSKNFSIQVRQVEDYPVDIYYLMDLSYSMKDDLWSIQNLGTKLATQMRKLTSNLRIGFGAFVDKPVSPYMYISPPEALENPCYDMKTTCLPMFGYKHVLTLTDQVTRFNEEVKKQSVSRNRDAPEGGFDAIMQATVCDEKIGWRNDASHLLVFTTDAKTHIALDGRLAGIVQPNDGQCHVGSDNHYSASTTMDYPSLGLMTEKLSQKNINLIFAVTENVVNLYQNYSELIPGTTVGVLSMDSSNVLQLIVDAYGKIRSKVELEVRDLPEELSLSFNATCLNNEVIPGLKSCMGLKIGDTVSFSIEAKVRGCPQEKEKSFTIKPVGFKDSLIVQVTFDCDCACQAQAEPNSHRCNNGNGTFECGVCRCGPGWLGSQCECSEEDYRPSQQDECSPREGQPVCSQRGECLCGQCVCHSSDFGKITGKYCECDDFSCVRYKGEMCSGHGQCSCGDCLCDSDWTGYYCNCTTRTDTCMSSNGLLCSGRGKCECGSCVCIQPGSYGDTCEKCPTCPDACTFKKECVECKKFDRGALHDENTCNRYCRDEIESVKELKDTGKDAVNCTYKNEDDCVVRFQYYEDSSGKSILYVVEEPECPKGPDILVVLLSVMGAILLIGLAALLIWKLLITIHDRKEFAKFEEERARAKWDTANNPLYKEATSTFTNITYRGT
# T1 sequence (P06756 31-889 limits assumed): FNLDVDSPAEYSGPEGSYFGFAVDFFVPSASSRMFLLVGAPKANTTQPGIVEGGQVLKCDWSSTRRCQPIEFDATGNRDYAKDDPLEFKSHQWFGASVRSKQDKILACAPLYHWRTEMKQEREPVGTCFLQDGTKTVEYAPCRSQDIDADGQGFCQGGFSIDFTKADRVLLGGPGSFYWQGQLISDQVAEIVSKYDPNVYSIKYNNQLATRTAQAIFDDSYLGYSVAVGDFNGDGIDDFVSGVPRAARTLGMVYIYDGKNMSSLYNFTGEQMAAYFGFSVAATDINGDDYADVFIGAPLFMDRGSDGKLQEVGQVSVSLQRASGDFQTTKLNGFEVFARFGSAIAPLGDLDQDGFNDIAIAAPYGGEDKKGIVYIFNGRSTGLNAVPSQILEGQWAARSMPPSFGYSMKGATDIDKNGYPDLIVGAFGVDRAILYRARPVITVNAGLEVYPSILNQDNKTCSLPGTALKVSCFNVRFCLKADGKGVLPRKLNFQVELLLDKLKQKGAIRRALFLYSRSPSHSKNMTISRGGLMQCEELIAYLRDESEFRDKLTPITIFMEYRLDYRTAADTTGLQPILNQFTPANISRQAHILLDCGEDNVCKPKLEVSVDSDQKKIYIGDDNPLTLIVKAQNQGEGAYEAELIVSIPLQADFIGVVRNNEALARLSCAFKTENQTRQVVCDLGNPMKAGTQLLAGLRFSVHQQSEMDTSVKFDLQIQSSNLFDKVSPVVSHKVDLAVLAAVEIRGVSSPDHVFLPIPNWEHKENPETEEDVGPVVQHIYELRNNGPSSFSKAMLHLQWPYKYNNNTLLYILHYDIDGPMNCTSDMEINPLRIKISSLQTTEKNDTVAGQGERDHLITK
# T1 sequence (P06756 891-1048 limits assumed): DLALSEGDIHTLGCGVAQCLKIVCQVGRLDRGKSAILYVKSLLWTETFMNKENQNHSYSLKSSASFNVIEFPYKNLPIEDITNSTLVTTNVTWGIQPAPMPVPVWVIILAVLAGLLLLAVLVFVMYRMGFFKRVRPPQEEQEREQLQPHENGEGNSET
# Sequence of Integrin alpha-5/beta-1 (P05556 21-798 limits assumed): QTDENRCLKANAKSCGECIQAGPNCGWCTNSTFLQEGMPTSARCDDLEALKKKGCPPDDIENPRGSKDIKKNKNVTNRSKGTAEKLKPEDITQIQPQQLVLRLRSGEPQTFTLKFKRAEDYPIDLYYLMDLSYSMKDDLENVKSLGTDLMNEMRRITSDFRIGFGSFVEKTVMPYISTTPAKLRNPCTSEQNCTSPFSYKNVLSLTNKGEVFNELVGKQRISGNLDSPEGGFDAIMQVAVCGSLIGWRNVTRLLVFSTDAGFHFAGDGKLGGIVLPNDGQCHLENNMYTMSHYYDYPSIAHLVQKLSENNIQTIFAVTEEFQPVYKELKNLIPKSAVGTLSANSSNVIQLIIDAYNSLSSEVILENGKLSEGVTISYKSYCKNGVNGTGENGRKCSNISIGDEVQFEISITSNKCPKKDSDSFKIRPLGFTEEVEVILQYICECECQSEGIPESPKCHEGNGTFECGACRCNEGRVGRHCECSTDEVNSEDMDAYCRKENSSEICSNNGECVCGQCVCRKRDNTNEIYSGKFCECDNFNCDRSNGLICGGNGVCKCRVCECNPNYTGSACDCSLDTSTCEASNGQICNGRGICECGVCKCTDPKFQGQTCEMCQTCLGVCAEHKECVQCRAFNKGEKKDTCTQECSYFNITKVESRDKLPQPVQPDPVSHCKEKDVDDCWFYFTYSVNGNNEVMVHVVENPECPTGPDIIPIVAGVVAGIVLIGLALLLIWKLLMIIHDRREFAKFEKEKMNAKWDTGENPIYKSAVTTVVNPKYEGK
# Sequence of Integrin alpha-5/beta-1 (P08648 42-894 limits assumed): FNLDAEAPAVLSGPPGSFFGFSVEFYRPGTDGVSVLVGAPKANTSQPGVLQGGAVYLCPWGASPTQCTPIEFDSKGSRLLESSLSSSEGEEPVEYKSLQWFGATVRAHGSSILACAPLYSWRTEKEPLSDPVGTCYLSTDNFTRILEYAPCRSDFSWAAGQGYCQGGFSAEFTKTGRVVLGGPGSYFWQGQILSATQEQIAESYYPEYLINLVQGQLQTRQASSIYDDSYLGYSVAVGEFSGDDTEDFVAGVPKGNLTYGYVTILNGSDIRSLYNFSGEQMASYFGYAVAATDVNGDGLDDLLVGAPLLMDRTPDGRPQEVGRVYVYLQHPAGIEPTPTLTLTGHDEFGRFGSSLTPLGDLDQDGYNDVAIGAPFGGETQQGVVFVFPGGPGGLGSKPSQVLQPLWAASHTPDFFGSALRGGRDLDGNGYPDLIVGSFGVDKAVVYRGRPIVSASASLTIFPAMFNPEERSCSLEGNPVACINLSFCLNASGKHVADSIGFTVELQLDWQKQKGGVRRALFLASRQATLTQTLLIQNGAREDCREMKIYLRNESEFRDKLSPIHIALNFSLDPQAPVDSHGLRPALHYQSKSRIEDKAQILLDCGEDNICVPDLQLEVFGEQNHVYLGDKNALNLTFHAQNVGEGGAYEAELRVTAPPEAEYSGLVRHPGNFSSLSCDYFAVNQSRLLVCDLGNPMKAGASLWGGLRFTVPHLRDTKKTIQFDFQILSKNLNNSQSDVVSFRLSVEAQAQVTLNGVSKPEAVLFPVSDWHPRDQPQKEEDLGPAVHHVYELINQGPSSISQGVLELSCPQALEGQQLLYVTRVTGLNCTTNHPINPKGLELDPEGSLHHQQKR
# Sequence of Integrin alpha-5/beta-1 (P08648 895-1049 limits assumed): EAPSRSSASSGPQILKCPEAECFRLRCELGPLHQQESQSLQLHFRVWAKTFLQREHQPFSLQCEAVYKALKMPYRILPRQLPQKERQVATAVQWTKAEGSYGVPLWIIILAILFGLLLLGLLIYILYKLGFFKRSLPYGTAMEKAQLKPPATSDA
smiles,measurement,setting,value
CCCCS(=O)(=O)N[C@@H](Cc1ccc(OCCCCC2CCNCC2)cc1)C(=O)O [TIROFIBAN],IC50,Integrin alpha-V/beta-3 [1],100 µM
same,IC50,Integrin alpha-5/beta-1,> 300 µM
same,IC50,Integrin alpha-V/beta-3 [2],260 µM

# Source: ChEMBL document CHEMBL1126316, “Non-peptide fibrinogen receptor antagonists. 1. Discovery and design of exosite inhibitors” (J Med Chem, 1992)
